Source: article PMC7914897, “Cytotoxic Potential of a-Azepano- and 3-Amino-3,4-SeCo-Triterpenoids” (International Journal of Molecular Sciences, 2021)

Experiments:
Melanoma subpanel = assay: NCI-60 screen, subpanel; settings: Homo sapiens
HCT-116 (Colon cancer) = assay: NCI-60 screen (SRB, 48 h); settings: Homo sapiens
MALME-3M (Melanoma) = assay: NCI-60 screen (SRB, 48 h); settings: Homo sapiens
K-562 (Leukemia) = assay: NCI-60 screen (SRB, 48 h); settings: Homo sapiens
SN12C (Renal cancer) = assay: NCI-60 screen (SRB, 48 h); settings: Homo sapiens
CNS cancer subpanel = assay: NCI-60 screen, subpanel; settings: Homo sapiens
Prostate cancer subpanel = assay: NCI-60 screen, subpanel; settings: Homo sapiens
KM12 (Colon cancer) = assay: NCI-60 screen (SRB, 48 h); settings: Homo sapiens
BT-549 (Breast cancer) = assay: NCI-60 screen (SRB, 48 h); type: cell-based; settings: Homo sapiens
MCF-7 (breast carcinoma) = assay: SRB cytotoxicity assay, 72 h; type: cell-based, human; settings: Homo sapiens, MCF7; MCF-7, 72 h, cut-off 30 µM; read-out: EC50
Experimental: (§1) The cytotoxicity of compounds 1–20 was evaluated by means of a colorimetric sulforhodamine B (SRB) assay. For all compounds, the EC50 values were determined for the human tumor cell lines A375 (malignant melanoma), HT29 (colorectal carcinoma), MCF-7 (breast carcinoma), A2780 (ovarian carcinoma), FaDu (hypopharyngeal carcinoma), and NIH 3T3 (non-malignant mouse fibroblasts).
(§2) In short, exponentially growing cells were seeded into 96-well plates on day 0 at the appropriate cell densities to prevent confluence of the cells during the period of experiment. After 24 h, the cells were treated with serial dilutions of the compounds (0–30 µM) for 72 h. The final concentration of DMSO never exceeded 0.5%, which was non-toxic to the cells. After a 72 h treatment, the supernatant medium from the 96-well plates was discarded, and the cells were fixed with 10% TCA. For a thorough fixation, the plates were allowed to rest at 4 °C. After fixation, the cells were washed in a strip washer. The washing was done four times with water using alternate dispensing and aspiration procedures. The plates were then dyed with 100 µL of 0.4% SRB for about 20 min. After dying, the plates were washed with 1% acetic acid to remove the excess of the dye and allowed to air-dry overnight. Tris base solution (200 µL, 10 mM) was added to each well and absorbance was measured at λ = 570 nm (using a 96 well plate reader, Tecan Spectra, Crailsheim, Germany). The percentages of surviving cells relative to untreated controls were determined.

[1] = system: A2780 (ovarian carcinoma); assay: SRB cytotoxicity assay, 72 h; type: cell-based, human; settings: Homo sapiens; A2780, 72 h, cut-off 30 µM; read-out: EC50
Experimental: as §1, §2

[2] = system: A375 (malignant melanoma); assay: SRB cytotoxicity assay, 72 h; type: cell-based, human; settings: Homo sapiens, A-375, 72 h, A375, 72 h, cut-off 30 µM; read-out: EC50
Experimental: as §1, §2

[3] = system: FaDu (hypopharyngeal carcinoma); assay: SRB cytotoxicity assay, 72 h; type: cell-based, human; settings: Homo sapiens, cut-off 30 µM, read-out: EC50
Experimental: as §1, §2

[4] = system: HT29 (colorectal carcinoma); assay: SRB cytotoxicity assay, 72 h; type: cell-based, human; settings: Homo sapiens, HT-29; HT29, 72 h, cut-off 30 µM; read-out: EC50
Experimental: as §1, §2

A498 (Renal cancer) = assay: NCI-60 screen (SRB, 48 h); settings: Homo sapiens
HT29 (Colon cancer) = assay: NCI-60 screen (SRB, 48 h); settings: Homo sapiens
UO-31 (Renal cancer) = assay: NCI-60 screen (SRB, 48 h); settings: Homo sapiens
[5] = system: NIH 3T3 (non-malignant mouse fibroblasts); assay: SRB cytotoxicity assay, 72 h; type: cell-based; settings: Mus musculus, NIH3T3; NIH 3T3, 72 h, cut-off 30 µM; read-out: EC50
Experimental: as §1, §2

MDA-MB-435 (Melanoma) = assay: NCI-60 screen (SRB, 48 h); type: cell-based; settings: Homo sapiens
MCF7 (Breast cancer) = assay: NCI-60 screen (SRB, 48 h); settings: Homo sapiens
SK-MEL-2 (Melanoma) = assay: NCI-60 screen (SRB, 48 h); settings: Homo sapiens
SF-539 (CNS cancer) = assay: NCI-60 screen (SRB, 48 h); settings: Homo sapiens
SF-295 (CNS cancer) = assay: NCI-60 screen (SRB, 48 h); settings: Homo sapiens
NSC lung cancer subpanel = assay: NCI-60 screen, subpanel; settings: Homo sapiens

Question: For `CC(C)=C1CCC=C2CC[C@]3(C)[C@H](CC[C@@H]4[C@@]5(C)CCCNC(C)(C)[C@@H]5CC[C@]43C)[C@H]21` [Compound 9], which IC (TGI) (Melanoma subpanel; 48 h, read-out: TGI MG_MID) is on record?
Answer: The IC (TGI) was 3.3 µM.

Question: What about the GI50 (Melanoma subpanel; read-out: GI50 MG_MID) of the same compound?
Answer: The GI50 was 1.77 µM.

Question: And the CC50 (Melanoma subpanel; read-out: LC50 MG_MID)?
Answer: The CC50 was 6.17 µM.

Question: What about the GI50 (HCT-116 (Colon cancer); HCT-116) of the same compound?
Answer: The GI50 was 1.73 µM.

Question: And the IC (TGI) (HCT-116 (Colon cancer); HCT-116, 48 h, read-out: TGI)?
Answer: Its IC (TGI) is 3.31 µM.

Question: What about the GI50 (MALME-3M (Melanoma)) of the same compound?
Answer: Its GI50 is 1.77 µM.

Question: What about the IC (TGI) (MALME-3M (Melanoma); 48 h, read-out: TGI) of the same compound?
Answer: Its IC (TGI) is 3.48 µM.

Question: What about the CC50 (MALME-3M (Melanoma); read-out: LC50) of the same compound?
Answer: Its CC50 is 6.84 µM.

Question: What about the GI50 (K-562 (Leukemia); K562) of the same compound?
Answer: Its GI50 is 1.25 µM.

Question: And the IC (TGI) (K-562 (Leukemia); K562, 48 h, read-out: TGI)?
Answer: The IC (TGI) was 3.5 µM.

Question: And the GI50 (SN12C (Renal cancer))?
Answer: Its GI50 is 1.83 µM.

Question: And the IC (TGI) (SN12C (Renal cancer); 48 h, read-out: TGI)?
Answer: The IC (TGI) was 3.44 µM.

Question: What about the CC50 (SN12C (Renal cancer); read-out: LC50) of the same compound?
Answer: Its CC50 is 6.45 µM.

Question: And the IC (TGI) (CNS cancer subpanel; 48 h, read-out: TGI MG_MID)?
Answer: The IC (TGI) was 3.44 µM.

Question: What about the GI50 (CNS cancer subpanel; read-out: GI50 MG_MID) of the same compound?
Answer: The GI50 was 1.83 µM.

Question: What about the CC50 (CNS cancer subpanel; read-out: LC50 MG_MID) of the same compound?
Answer: The CC50 was 6.61 µM.

Question: What about the IC (TGI) (Prostate cancer subpanel; 48 h, read-out: TGI MG_MID) of the same compound?
Answer: Its IC (TGI) is 3.29 µM.

Question: And the GI50 (Prostate cancer subpanel; read-out: GI50 MG_MID)?
Answer: Its GI50 is 1.78 µM.

Question: And the CC50 (Prostate cancer subpanel; read-out: LC50 MG_MID)?
Answer: The CC50 was 6.08 µM.

Question: What about the GI50 (KM12 (Colon cancer); KM12) of the same compound?
Answer: The GI50 was 1.92 µM.

Question: What about the IC (TGI) (KM12 (Colon cancer); KM12, 48 h, read-out: TGI) of the same compound?
Answer: The IC (TGI) was 3.42 µM.

Question: And the GI50 (BT-549 (Breast cancer); BT-549)?
Answer: Its GI50 is 1.66 µM.

Question: What about the IC (TGI) (BT-549 (Breast cancer); BT-549, 48 h) of the same compound?
Answer: The IC (TGI) was 3.14 µM.

Question: What about the CC50 (BT-549 (Breast cancer); BT-549, read-out: LC50 (the source's name)) of the same compound?
Answer: Its CC50 is 5.96 µM.

Question: And the EC50 (MCF-7 (breast carcinoma))?
Answer: The EC50 was 1.52 µM.

Question: What about the EC50 [1] of the same compound?
Answer: Its EC50 is 2.19 ± 0.1 µM.

Question: What about the EC50 [2] of the same compound?
Answer: Its EC50 is 1.71 ± 0.1 µM.

Question: What about the EC50 [3] of the same compound?
Answer: Its EC50 is 1.58 ± 0.2 µM.

Question: And the EC50 [4]?
Answer: The EC50 was 1.18 ± 0.1 µM.

Question: What about the GI50 (A498 (Renal cancer); A498) of the same compound?
Answer: The GI50 was 1.87 µM.

Question: And the IC (TGI) (A498 (Renal cancer); A498, 48 h, read-out: TGI)?
Answer: Its IC (TGI) is 3.6 µM.

Question: And the CC50 (A498 (Renal cancer); A498, read-out: LC50)?
Answer: Its CC50 is 6.93 µM.

Question: What about the GI50 (HT29 (Colon cancer); HT-29) of the same compound?
Answer: The GI50 was 0.94 µM.

Question: What about the IC (TGI) (HT29 (Colon cancer); HT-29, 48 h, read-out: TGI) of the same compound?
Answer: The IC (TGI) was 2.31 µM.

Question: What about the GI50 (UO-31 (Renal cancer); UO-31) of the same compound?
Answer: The GI50 was 1.47 µM.

Question: And the IC (TGI) (UO-31 (Renal cancer); UO-31, 48 h, read-out: TGI)?
Answer: The IC (TGI) was 2.82 µM.

Question: And the CC50 (UO-31 (Renal cancer); UO-31, read-out: LC50)?
Answer: Its CC50 is 5.42 µM.

Question: What about the EC50 [5] of the same compound?
Answer: Its EC50 is 2.65 ± 0.5 µM.

Question: What about the GI50 (MDA-MB-435 (Melanoma); MDA-MB-435) of the same compound?
Answer: The GI50 was 1.85 µM.

Question: And the IC (TGI) (MDA-MB-435 (Melanoma); MDA-MB-435, 48 h, read-out: TGI)?
Answer: Its IC (TGI) is 3.28 µM.

Question: What about the CC50 (MDA-MB-435 (Melanoma); MDA-MB-435, read-out: LC50 (the source's name)) of the same compound?
Answer: Its CC50 is 5.81 µM.

Question: And the GI50 (MCF7 (Breast cancer); MCF7)?
Answer: Its GI50 is 1.77 µM.

Question: And the IC (TGI) (MCF7 (Breast cancer); MCF7, 48 h, read-out: TGI)?
Answer: Its IC (TGI) is 3.54 µM.

Question: What about the GI50 (SK-MEL-2 (Melanoma); SK-MEL-2) of the same compound?
Answer: The GI50 was 1.81 µM.

Question: And the IC (TGI) (SK-MEL-2 (Melanoma); SK-MEL-2, 48 h, read-out: TGI)?
Answer: Its IC (TGI) is 3.48 µM.

Question: And the CC50 (SK-MEL-2 (Melanoma); SK-MEL-2, read-out: LC50)?
Answer: Its CC50 is 6.69 µM.

Question: What about the GI50 (SF-539 (CNS cancer); SF-539) of the same compound?
Answer: Its GI50 is 1.69 µM.

Question: What about the IC (TGI) (SF-539 (CNS cancer); SF-539, 48 h, read-out: TGI) of the same compound?
Answer: The IC (TGI) was 3.13 µM.

Question: And the CC50 (SF-539 (CNS cancer); SF-539, read-out: LC50)?
Answer: The CC50 was 5.8 µM.

Question: And the GI50 (SF-295 (CNS cancer); SF-295)?
Answer: The GI50 was 1.87 µM.

Question: What about the IC (TGI) (SF-295 (CNS cancer); SF-295, 48 h, read-out: TGI) of the same compound?
Answer: Its IC (TGI) is 3.42 µM.

Question: And the CC50 (SF-295 (CNS cancer); SF-295, read-out: LC50)?
Answer: Its CC50 is 6.24 µM.

Question: What about the IC (TGI) (NSC lung cancer subpanel; 48 h, read-out: TGI MG_MID) of the same compound?
Answer: The IC (TGI) was 3.27 µM.

Question: What about the GI50 (NSC lung cancer subpanel; read-out: GI50 MG_MID) of the same compound?
Answer: The GI50 was 1.68 µM.

Question: What about the CC50 (NSC lung cancer subpanel; read-out: LC50 MG_MID) of the same compound?
Answer: The CC50 was 6.11 µM.
